In patent US20220143222A1, “SUBCUTANEOUS AND INTRAMUSCULAR ADMINISTRATION OF PYRAZINE COMPOUNDS” (MediBeacon Inc., priority 2020, published 2022):

Test: MB-102 pig plasma concentration after IV dosing
Assay type: in vivo
Conditions: pig 48019, IV, 3.2 mpk
From the text: Juvenile Yorkshire pigs weighing approximately 25 kg were anesthetized, their body temperature stabilized, and an IV port surgically placed. A region approximately half-way along the line between the hip and knee joint was selected as the injection site and prepared by cleaning the skin and removing any exposed hair by shaving the selected area at least twice. Similarly, the site where two Quantum Leap fluorescent sensors (disclosed in U.S. Pat. No. 10,548,521) were to be positioned (chest) was prepared by washing and shaving. After the skin was dry the sensors were attached with commercially available skin adhesive and background skin auto-fluorescence measurements were recorded. After about 20 minutes of background fluorescence collection the subject animal was dosed either intravenously (animal 48019) or subcutaneously (animals 52771, 53701 09802, or 1539) or intramuscularly (09801) with PBS-1× formulated MB-102 at 3.2 mg/kg. Injection of the appropriate volume took place over about a minute. […] At this point glomerular elimination of MB-102 by the kidneys led to a decrease of fluorescence signal over time. Blood samples (1.5 mL) were taken immediately prior to the introduction of MB-102 (0 minutes) and at 15 minute intervals throughout the procedure. Blood was collected in BD vacutainer K2EDTA tubes, spun to plasma and stored at −80° C. until analyzed. Subsequently, the processed plasma samples were thawed, diluted with PBS-1× and analyzed by HPLC or UPLC and the concentration of MB-102 determined using standard analytical techniques. Further details for each animal are provided in the examples that follow.
Subject pig, 48019, the control animal, was prepared as in Example 6 and dosed IV using 8.2 mL of 11.8 mg/mL MB-102 in PBS-1× (bolus over about 2 min).

SMILES: Nc1nc(C(=O)N[C@H](CO)C(=O)O)c(N)nc1C(=O)N[C@H](CO)C(=O)O [MB-102, 3,6-diamino-2,5-bis{N-[(1R)-1-carboxy-2-hydroxyethyl]carbamoyl}pyrazine]
- concentration at 15 min (Yorkshire, plasma, 3.2 mg/kg, 15 min, read-out: MB-102 Pig Plasma Conc.): 13000 ng/mL
- concentration at 30 min (Yorkshire, plasma, 3.2 mg/kg, 30 min, read-out: MB-102 Pig Plasma Conc.): 9200 ng/mL
- concentration at 45 min (Yorkshire, plasma, 3.2 mg/kg, 45 min, read-out: MB-102 Pig Plasma Conc.): 7830 ng/mL
- concentration at 60 min (Yorkshire, plasma, 3.2 mg/kg, 60 min, read-out: MB-102 Pig Plasma Conc.): 5880 ng/mL
- concentration at 75 min (Yorkshire, plasma, 3.2 mg/kg, 75 min, read-out: MB-102 Pig Plasma Conc.): 5430 ng/mL
- concentration at 90 min (Yorkshire, plasma, 3.2 mg/kg, 90 min, read-out: MB-102 Pig Plasma Conc.): 4680 ng/mL
- concentration at 105 min (Yorkshire, plasma, 3.2 mg/kg, 105 min, read-out: MB-102 Pig Plasma Conc.): 4000 ng/mL
- concentration at 120 min (Yorkshire, plasma, 3.2 mg/kg, 120 min, read-out: MB-102 Pig Plasma Conc.): 3340 ng/mL
- concentration at 135 min (Yorkshire, plasma, 3.2 mg/kg, 135 min, read-out: MB-102 Pig Plasma Conc.): 3250 ng/mL
- concentration at 150 min (Yorkshire, plasma, 3.2 mg/kg, 150 min, read-out: MB-102 Pig Plasma Conc.): 2700 ng/mL
- concentration at 165 min (Yorkshire, plasma, 3.2 mg/kg, 165 min, read-out: MB-102 Pig Plasma Conc.): 2410 ng/mL
- concentration at 180 min (Yorkshire, plasma, 3.2 mg/kg, 180 min, read-out: MB-102 Pig Plasma Conc.): 2200 ng/mL
- concentration at 195 min (Yorkshire, plasma, 3.2 mg/kg, 195 min, read-out: MB-102 Pig Plasma Conc.): 2000 ng/mL
- concentration at 210 min (Yorkshire, plasma, 3.2 mg/kg, 210 min, read-out: MB-102 Pig Plasma Conc.): 1910 ng/mL
- concentration at 225 min (Yorkshire, plasma, 3.2 mg/kg, 225 min, read-out: MB-102 Pig Plasma Conc.): 1690 ng/mL
- concentration at 240 min (Yorkshire, plasma, 3.2 mg/kg, 240 min, read-out: MB-102 Pig Plasma Conc.): 1510 ng/mL
- concentration at 255 min (Yorkshire, plasma, 3.2 mg/kg, 255 min, read-out: MB-102 Pig Plasma Conc.): 1400 ng/mL
- concentration at 270 min (Yorkshire, plasma, 3.2 mg/kg, 270 min, read-out: MB-102 Pig Plasma Conc.): 1320 ng/mL
- concentration at 285 min (Yorkshire, plasma, 3.2 mg/kg, 285 min, read-out: MB-102 Pig Plasma Conc.): 1140 ng/mL
- concentration at 300 min (Yorkshire, plasma, 3.2 mg/kg, 300 min, read-out: MB-102 Pig Plasma Conc.): 1110 ng/mL
- concentration at 315 min (Yorkshire, plasma, 3.2 mg/kg, 315 min, read-out: MB-102 Pig Plasma Conc.): 1000 ng/mL
- concentration at 330 min (Yorkshire, plasma, 3.2 mg/kg, 330 min, read-out: MB-102 Pig Plasma Conc.): 917 ng/mL
- concentration at 345 min (Yorkshire, plasma, 3.2 mg/kg, 345 min, read-out: MB-102 Pig Plasma Conc.): 859 ng/mL
- concentration at 360 min (Yorkshire, plasma, 3.2 mg/kg, 360 min, read-out: MB-102 Pig Plasma Conc.): 819 ng/mL
- SUM (plasma conc. over time) (15-360 min): 1,188,637 ng/mL*min
